What was measured:
Assay type in all cases: physicochemical
[1] = crystal structure after wet grinding; conditions: subjected to wet grinding
[2] = solubility over the relevant pH range; conditions: entire relevant pH range
[3] = resistance to oxidative stress; conditions: compared with blarcamesine hydrochloric acid salt

## CN(C)CC1CCOC1(c1ccccc1)c1ccccc1.Cl (racemic) [hydrochloric acid salt, [(2,2-diphenyloxolan-3-yl)methyl]dimethylamine hydrochloride]
[1]
  retention of crystal structure / polymorphic form after wet grinding: polymorphic form of the hydrochloride salt changes
[2]
  solubility: extreme solubility

## (S)-(−)-blarcamesine hydrochloride, (R)-(+)-blarcamesine hydrochloride, ZnCl2 (1:1:1) co-crystal [ZnCl2 co-crystal]
[3]
  resistance to oxidative stress: more resistant to oxidative stress than the hydrochloric acid salt
[1]
  retention of crystal structure / polymorphic form after wet grinding: retains its crystal structure
